The results in this text go back to US10669269B2, “Substituted N-(1H-indazol-4-yl)imidazo[1,2-a]pyridine-3-carboxamide compounds as type III receptor tyrosine kinase inhibitors” (ARRAY BIOPHARMA INC., priority 2010, dated 2020).

The target of one assay is T1, PDGFR beta (Homo sapiens, UniProt P09619).
T1 construct: endogenous in cells; host or cells: HS27 human fibroblast cell line
The assay can be described thus: Phospho PDGFR Cell Assay, sandwich ELISA (Example A). In kind it is cell-based. Particulars: averaged IC50, PDGFR beta phosphorylation in HS27 human fibroblast cell line, PDGF-BB stimulation 5 minutes. The procedure: Compounds were screened for inhibition of PDGFR beta phosphorylation in the HS27 human fibroblast cell line. Cells were seeded into a 96 well tissue culture plate, then incubated overnight in a 37° C., 5% CO2 incubator. The following day, cells were treated for one hour with test compound dilutions. After stimulation with PDGF-BB ligand for 5 minutes, cells were lysed and added to a sandwich ELISA plate from R&D Systems to detect levels of phospho PDGFR beta. A standard 4-parameter logistic model was fit to the inhibitor dose response curves, with the IC50 being defined as the concentration of inhibitor giving 50 percent of control (POC).

Another assay addresses T2, c-KIT (Homo sapiens, UniProt P10721).
T2 construct: M-07e cells (human acute megakaryoblastic leukemia cell line) were serum-starved for 4 hours; endogenous in cells; host or cells: M-07e cells (human acute megakaryoblastic leukemia cell line)
The assay can be described thus: c-KIT Cell-Based Assay (Example D). Particulars: averaged IC50; phospho-c-KIT in M-07e cells stimulated with 150 ng/ml recombinant human SCF; read-out: cKIT Cell ELISA IC50. Put shortly:
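M-07e cells serum-starved 4 h, treated 1 h with compound (9-point, 3-fold dilutions, top dose typically 5,000 nM) at 37° C, then stimulated 4 min with 150 ng/ml SCF. Phospho-c-KIT in lysates quantified by ELISA against a standard curve; IC50 from 4-parameter logistic fit as 50% of control.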
Background: In an ELISA, binding on a coated surface is turned into a signal by an enzyme label.

Another assay has as its target T3, cFMS (Homo sapiens, UniProt P07333).
T3 construct: THP-1 cells (human acute monocytic leukemia cell line) were serum-starved for 4 hours; endogenous in cells; host or cells: THP-1 cells (human acute monocytic leukemia cell line)
The assay can be described thus: cFMS Cell-Based Assay (Example C). Particulars: averaged IC50; phospho-cFMS in THP-1 cells stimulated with 250 ng/mL recombinant human MCSF; read-out: cFMS Cell ELISA IC50. Put shortly:
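THP-1 cells serum-starved 4 h, then treated 1 h with compound (9-point, 3-fold series, top dose typically 5,000 nM) at 37 °C, then stimulated 1 min with 250 ng/mL recombinant human MCSF. Phospho-cFMS in lysates quantified by capture ELISA against a purified phospho-protein standard curve. IC50 at 50 percent of control, 4-parameter logistic fit.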

Molecules are shown by their SMILES. Counter-ions that a name gives are not always drawn.

T1 sequence (P09619 33-1106): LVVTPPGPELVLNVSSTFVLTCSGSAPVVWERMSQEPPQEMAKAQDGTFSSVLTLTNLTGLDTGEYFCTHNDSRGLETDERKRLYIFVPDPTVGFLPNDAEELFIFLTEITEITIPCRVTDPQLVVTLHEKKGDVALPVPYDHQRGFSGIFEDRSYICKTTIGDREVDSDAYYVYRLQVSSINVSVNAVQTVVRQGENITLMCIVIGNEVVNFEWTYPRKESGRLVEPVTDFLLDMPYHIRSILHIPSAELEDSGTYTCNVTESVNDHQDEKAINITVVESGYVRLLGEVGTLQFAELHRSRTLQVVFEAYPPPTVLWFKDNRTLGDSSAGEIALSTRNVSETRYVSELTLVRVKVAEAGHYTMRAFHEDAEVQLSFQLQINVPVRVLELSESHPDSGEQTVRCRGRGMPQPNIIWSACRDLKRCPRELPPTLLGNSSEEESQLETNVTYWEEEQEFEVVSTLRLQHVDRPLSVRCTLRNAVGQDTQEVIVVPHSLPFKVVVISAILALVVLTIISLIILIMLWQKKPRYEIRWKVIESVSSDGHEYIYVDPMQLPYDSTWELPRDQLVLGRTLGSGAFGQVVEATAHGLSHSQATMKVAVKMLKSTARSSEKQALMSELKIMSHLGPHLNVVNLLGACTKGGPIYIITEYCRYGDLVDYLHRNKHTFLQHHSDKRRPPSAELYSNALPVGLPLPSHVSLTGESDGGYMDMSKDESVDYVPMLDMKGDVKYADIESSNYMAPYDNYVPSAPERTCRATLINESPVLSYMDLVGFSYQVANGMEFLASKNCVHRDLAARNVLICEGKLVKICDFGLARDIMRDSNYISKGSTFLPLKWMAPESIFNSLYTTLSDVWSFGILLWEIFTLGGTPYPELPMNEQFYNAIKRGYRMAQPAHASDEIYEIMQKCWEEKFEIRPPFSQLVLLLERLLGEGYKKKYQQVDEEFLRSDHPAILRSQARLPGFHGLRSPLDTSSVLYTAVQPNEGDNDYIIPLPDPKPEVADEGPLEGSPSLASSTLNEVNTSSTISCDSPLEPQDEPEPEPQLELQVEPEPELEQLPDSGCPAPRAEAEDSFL
T2 sequence (P10721 26-976): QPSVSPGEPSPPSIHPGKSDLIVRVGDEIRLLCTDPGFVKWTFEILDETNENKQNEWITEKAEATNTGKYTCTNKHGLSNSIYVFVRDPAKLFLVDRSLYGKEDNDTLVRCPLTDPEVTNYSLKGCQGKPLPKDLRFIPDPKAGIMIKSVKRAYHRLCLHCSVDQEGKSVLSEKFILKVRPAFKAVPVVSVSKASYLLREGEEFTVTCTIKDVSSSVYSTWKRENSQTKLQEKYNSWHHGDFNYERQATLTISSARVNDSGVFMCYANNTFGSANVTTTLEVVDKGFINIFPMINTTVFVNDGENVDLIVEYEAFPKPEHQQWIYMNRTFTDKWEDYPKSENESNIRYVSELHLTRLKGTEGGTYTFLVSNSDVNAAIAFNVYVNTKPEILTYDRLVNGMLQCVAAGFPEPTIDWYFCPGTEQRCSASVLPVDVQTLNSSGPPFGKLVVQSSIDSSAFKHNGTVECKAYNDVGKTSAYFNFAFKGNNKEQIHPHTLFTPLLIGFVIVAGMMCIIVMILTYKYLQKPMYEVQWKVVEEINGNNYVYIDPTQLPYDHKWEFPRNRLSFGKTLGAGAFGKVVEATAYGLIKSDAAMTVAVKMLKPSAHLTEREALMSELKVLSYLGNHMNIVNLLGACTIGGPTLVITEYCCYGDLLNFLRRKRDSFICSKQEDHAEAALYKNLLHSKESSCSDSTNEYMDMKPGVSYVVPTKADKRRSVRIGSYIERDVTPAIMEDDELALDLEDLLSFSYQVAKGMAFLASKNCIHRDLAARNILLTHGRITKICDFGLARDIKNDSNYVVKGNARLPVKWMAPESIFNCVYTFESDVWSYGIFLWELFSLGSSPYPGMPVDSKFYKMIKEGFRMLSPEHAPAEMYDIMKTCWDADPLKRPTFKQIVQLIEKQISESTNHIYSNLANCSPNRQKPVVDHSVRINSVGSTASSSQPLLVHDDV
T3 sequence (P07333 20-972): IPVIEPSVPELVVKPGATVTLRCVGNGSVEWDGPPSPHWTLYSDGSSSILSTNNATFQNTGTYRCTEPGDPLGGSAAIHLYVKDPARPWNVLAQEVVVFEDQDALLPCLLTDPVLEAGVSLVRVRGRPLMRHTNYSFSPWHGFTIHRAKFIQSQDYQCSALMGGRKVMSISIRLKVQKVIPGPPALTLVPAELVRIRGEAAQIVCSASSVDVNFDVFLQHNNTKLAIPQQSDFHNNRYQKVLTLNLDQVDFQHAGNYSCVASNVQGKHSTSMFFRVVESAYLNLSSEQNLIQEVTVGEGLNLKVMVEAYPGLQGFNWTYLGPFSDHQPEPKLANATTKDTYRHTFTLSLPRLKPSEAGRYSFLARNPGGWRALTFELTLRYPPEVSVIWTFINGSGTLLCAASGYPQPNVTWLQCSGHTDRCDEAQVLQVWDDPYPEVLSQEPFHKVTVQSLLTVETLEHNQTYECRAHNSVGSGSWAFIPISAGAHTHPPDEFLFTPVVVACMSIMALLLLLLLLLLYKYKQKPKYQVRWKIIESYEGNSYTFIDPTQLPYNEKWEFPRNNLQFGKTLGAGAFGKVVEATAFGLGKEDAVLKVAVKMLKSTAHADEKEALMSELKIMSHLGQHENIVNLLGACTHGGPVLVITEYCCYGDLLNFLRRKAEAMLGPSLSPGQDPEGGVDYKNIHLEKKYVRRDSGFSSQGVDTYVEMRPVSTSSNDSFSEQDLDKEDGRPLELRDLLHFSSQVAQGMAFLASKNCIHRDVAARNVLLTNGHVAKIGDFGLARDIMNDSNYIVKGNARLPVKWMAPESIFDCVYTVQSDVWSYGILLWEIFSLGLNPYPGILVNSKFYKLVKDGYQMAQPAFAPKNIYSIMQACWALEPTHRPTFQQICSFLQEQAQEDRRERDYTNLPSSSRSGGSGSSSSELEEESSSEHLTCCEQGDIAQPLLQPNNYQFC

A word on the IC50: it is the concentration at which inhibition is half-maximal. Turning to `CCc1cccc(Cn2nc(C)c3c(NC(=O)c4cnc5cc(OCCN6CCN(C)[C@@H](C)C6)ccn45)cccc32)n1` [Example 36, (S)-7-(2-(3,4-dimethylpiperazin-1-yl)ethoxy)-N-(1-((6-ethylpyridin-2-yl)methyl)-3-methyl-1H-indazol-4-yl)imidazo[1,2-a]pyridine-3-carboxamide], the IC50 on PDGFR beta was found to be 65.6 nM; on c-KIT, 119 nM; at cFMS, 12 nM.
The corresponding values for `Cc1cccc(Cn2nc(C)c3c(NC(=O)c4cnc5cc(C(C)NCCO)ccn45)cccc32)n1` (stereo not drawn) [Example 75, 7-(1-(2-hydroxyethylamino)ethyl)-N-(3-methyl-1-((6-methylpyridin-2-yl)methyl)-1H-indazol-4-yl)imidazo[1,2-a]pyridine-3-carboxamide] are at least 1000 nM, 5000 nM and 427 nM.
With `Cc1cccc(Cn2nc(C)c3c(NC(=O)c4cnc5cc(C(C)O)ccn45)cccc32)n1` (stereo not drawn) [Example 76, 7-(1-hydroxyethyl)-N-(3-methyl-1-((6-methylpyridin-2-yl)methyl)-1H-indazol-4-yl)imidazo[1,2-a]pyridine-3-carboxamide], the IC50 on PDGFR beta is at least 1000 nM; on c-KIT, 5000 nM; at cFMS it was 47 nM.
For `CCCc1ccc(Cn2nc(C)c3c(NC(=O)c4cnc5cc(OCCN6CCN(C)[C@@H](C)C6)ccn45)cccc32)nc1` [Example 38, (S)-7-(2-(3,4-dimethylpiperazin-1-yl)ethoxy)-N-(3-methyl-1-((5-propylpyridin-2-yl)methyl)-1H-indazol-4-yl)imidazo[1,2-a]pyridine-3-carboxamide], the IC50 against PDGFR beta was 253 nM; on c-KIT, 337 nM; at cFMS, 15.4 nM.
Take `Cc1cccc(Cn2nc(C)c3c(NC(=O)c4cnc5cc(OCCN6CCN(C(=O)OC(C)(C)C)CC6)ccn45)cccc32)n1` [Example 56, tert-Butyl 4-(2-(3-(3-methyl-1-((6-methylpyridin-2-yl)methyl)-1H-indazol-4-ylcarbamoyl)imidazo[1,2-a]pyridin-7-yloxy)ethyl)piperazine-1-carboxylate]: the IC50 against PDGFR beta is at least 1000 nM; at c-KIT, 1160 nM; at cFMS it was 32.1 nM.
The corresponding values for `COCCOc1ccn2c(C(=O)Nc3cccc4c3c(C)nn4CC3CCCCO3)cnc2c1` (stereo not drawn) [Example 82, 7-(2-methoxyethoxy)-N-(3-methyl-1-((tetrahydro-2H-pyran-2-yl)methyl)-1H-indazol-4-yl)imidazo[1,2-a]pyridine-3-carboxamide] are 309 nM, 458 nM and 122 nM.
Taken in the same sequence, the figures for `Cc1cccc(Cn2nc(C)c3c(NC(=O)c4cnc5cc(-c6ccnn6C)ccn45)cccc32)n1` [Example 71, N-(3-methyl-1-((6-methylpyridin-2-yl)methyl)-1H-indazol-4-yl)-7-(1-methyl-1H-pyrazol-5-yl)imidazo[1,2-a]pyridine-3-carboxamide] were 274 nM, 455 nM and 7.6 nM.
Consider `Cc1nn(Cc2cccc(C(C)C)n2)c2cccc(NC(=O)c3cnc4cc(OCCN5CCN[C@@H](C)C5)ccn34)c12` [Example 46, (S)—N-(1-((6-isopropylpyridin-2-yl)methyl)-3-methyl-1H-indazol-4-yl)-7-(2-(3-methylpiperazin-1-yl)ethoxy)imidazo[1,2-a]pyridine-3-carboxamide], for which the results for the IC50 against PDGFR beta, at c-KIT and at cFMS were 21.4 nM, 42.5 nM and 22.4 nM, respectively.
The corresponding values for `COCCOc1ccn2c(C(=O)Nc3cccc4c3c(C)nn4CC3CC3)cnc2c1` [Example 84, N-(1-(cyclopropylmethyl)-3-methyl-1H-indazol-4-yl)-7-(2-methoxyethoxy)imidazo[1,2-a]pyridine-3-carboxamide] are at least 1000 nM, 5000 nM and 734 nM.
`Cc1cccc(Cn2nc(C)c3c(NC(=O)c4cnc5cc(OCCN6CCN(C)[C@@H](C)C6)ccn45)cccc32)n1` [Example 35, (S)-7-(2-(3,4-dimethylpiperazin-1-yl)ethoxy)-N-(3-methyl-1-((6-methylpyridin-2-yl)methyl)-1H-indazol-4-yl)imidazo[1,2-a]pyridine-3-carboxamide]: the results for the IC50 against PDGFR beta, at c-KIT and at cFMS were 431 nM, 924 nM and 19.4 nM, respectively.
The corresponding values for `Cc1nn(Cc2ccc(C(C)C)cn2)c2cccc(NC(=O)c3cnc4cc(OCCN5CCN(C)[C@@H](C)C5)ccn34)c12` [Example 39, (S)-7-(2-(3,4-dimethylpiperazin-1-yl)ethoxy)-N-(1-((5-isopropylpyridin-2-yl)methyl)-3-methyl-1H-indazol-4-yl)imidazo[1,2-a]pyridine-3-carboxamide] are 68 nM, 188 nM and 35.7 nM.
For the compound `Cc1cccc(Cn2nc(C)c3c(NC(=O)c4cnc5cc(OCCO)ccn45)cccc32)n1` [Example 57, 7-(2-hydroxyethoxy)-N-(3-methyl-1-((6-methylpyridin-2-yl)methyl)-1H-indazol-4-yl)imidazo[1,2-a]pyridine-3-carboxamide di-hydrochloride salt], the values for the IC50 at PDGFR beta, at c-KIT and at cFMS were 658 nM, 1270 nM and 40.2 nM, respectively.
In the case of `Cc1nn(Cc2cccc(C3CCCC3)n2)c2cccc(NC(=O)c3cnc4cc(OCCN5CCN(C)[C@@H](C)C5)ccn34)c12` [Example 33, (S)—N-(1-((6-cyclopentylpyridin-2-yl)methyl)-3-methyl-1H-indazol-4-yl)-7-(2-(3,4-dimethylpiperazin-1-yl)ethoxy)imidazo[1,2-a]pyridine-3-carboxamide], the IC50 came to 65.8 nM against PDGFR beta, 22.6 nM at c-KIT and 41.5 nM at cFMS.
The corresponding values for `Cc1nn(Cc2cccc(C(C)(C)C)n2)c2cccc(NC(=O)c3cnc4cc(OCCN5CCN(C)[C@@H](C)C5)ccn34)c12` [Example 31, (S)—N-(1-((6-tert-butylpyridin-2-yl)methyl)-3-methyl-1H-indazol-4-yl)-7-(2-(3,4-dimethylpiperazin-1-yl)ethoxy)imidazo[1,2-a]pyridine-3-carboxamide] are 335 nM, 67.1 nM and 102 nM.
In the case of `Cc1nn(Cc2cccc(C3CC3)n2)c2ccc(F)c(NC(=O)c3cnc4cc(OCCN5CCN(C)[C@@H](C)C5)ccn34)c12` [Example 43, (S)—N-(1-((6-cyclopropylpyridin-2-yl)methyl)-5-fluoro-3-methyl-1H-indazol-4-yl)-7-(2-(3,4-dimethylpiperazin-1-yl)ethoxy)imidazo[1,2-a]pyridine-3-carboxamide], the values for the IC50 at PDGFR beta, on c-KIT and at cFMS were 84.5 nM, 58.9 nM and 23.4 nM, respectively.
For `C[C@H]1CN(CCOc2ccn3c(C(=O)Nc4cccc5c4c(F)nn5Cc4cccc(C5CC5)n4)cnc3c2)CCN1C` [Example 24, (S)—N-(1-((6-cyclopropylpyridin-2-yl)methyl)-3-fluoro-1H-indazol-4-yl)-7-(2-(3,4-dimethylpiperazin-1-yl)ethoxy)imidazo[1,2-a]pyridine-3-carboxamide], the IC50 against PDGFR beta turned out to be 14.1 nM; on c-KIT it was 6.4 nM; on cFMS, 6.8 nM.
